In PubChem BioAssay (NCI):
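Exposure lasted 48 hours, with cells grown in 96-well plates and compounds tested at five concentrations. The concentration for 50% growth inhibition is given as GI50. TGI: total growth inhibition.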

Tests used:
Experiment in all cases: NCI anticancer screen, dose series, 48 h
[1] = system: HCC-2998 colon
[2] = system: LXFL 529 NSCLC
[3] = system: NCI-H522 lung
[4] = system: XF 498 CNS
[5] = system: DMS 114 small cell lung
[6] = system: DMS 273 small cell lung
[7] = system: 786-0 renal
[8] = system: M19-MEL melanoma
[9] = system: DLD-1 colon
[10] = system: KM20L2 colon
[11] = system: T-47D breast
[12] = system: HS 578T breast
[13] = system: SR leukemia
[14] = system: HCT-116 colon
[15] = system: MDA-N

SMILES: COc1ccc(-c2ccc(-c3ccc(C(=N)N)nc3)s2)cc1
- GI50 [1]: 1.82 µM
- TGI [1]: 3.41 µM

SMILES: O=C(NO)c1ccc([N+](=O)[O-])cc1
- TGI [2]: 83.8 µM
- TGI [3]: 97.2 µM
- TGI [4]: > 100 µM
- TGI [5]: > 100 µM
- TGI [6]: > 100 µM
- TGI [7]: > 100 µM
- TGI [8]: > 100 µM
- TGI [9]: > 100 µM
- TGI [1]: > 100 µM
- TGI [10]: > 100 µM

SMILES: N#CC(C#N)=CN1CCN(C(=O)c2ccco2)C1=S
- GI50 [11]: 21.2 µM
- TGI [11]: > 100 µM

SMILES: O=C(O)C(=C\c1ccc2c(c1)OCO2)/C(=C/c1ccc2c(c1)OCO2)C(=O)O
- TGI [11]: > 100 µM
- TGI [12]: > 100 µM
- TGI [13]: > 100 µM
- TGI [14]: > 100 µM
- TGI [15]: > 100 µM
- TGI [1]: > 100 µM

SMILES: Cc1c(C#N)c2nnn(C)c(=O)n2c1-c1ccccc1
- TGI [15]: > 100 µM
- TGI [1]: > 100 µM
